Assays:
[1] = Folic acid release from PLG(A) microspheres in methylcellulose gel; assay type: physicochemical
Protocol: Folic acid was encapsulated in polylactic-colycolide (PLG) microspheres that were visualized using scanning electron microscopy (SEM) (A). These microspheres were embedded within a methylcellulose gel to enable oral applications and visualized using SEM (B). Controlled release of folic acid of a protracted time course was examined using spectroscopy and cumulative release was calculated (C).
In order to deliver the Folic acid treatment, a controlled release system with polylactic glycolic acid (PLGA) and methylcellulose gel were used (FIG. 36). Release kinetics of folic acid increased over time and noted to continue until day 21. The amount of the released Folic acid was approximate 400 μg/ml on day 1 and reached 800 μg/ml on day 21 due to bulk deterioration of polymer.
Microsphere Fabrication. The folic acid was encapsulated in poly (lactide-co-glycolide) (PLG) (8515DLG7E, Lakeshore Biomaterials, Birmingham, AL, USA) microspheres using double emulsion solvent evaporation method. Briefly, a 100 μL quantity of proteins dissolved in molecular-grade water was pipetted into 1 mL of 5% PLG in ethyl acetate (Sigma-Aldrich Corp., St. Louis, MO, USA) and sonicated (Sonics and Materials Inc., Newtown, CT, USA) on 50% magnitude for 1 min. A second emulsion composed of 1% […] (PVA) (Sigma-Aldrich) and 7% ethyl acetate was then added and vortexed for 15 sec. The solution was then added to a 1% PVA solution with continuous stirring for 3 hrs at room temperature and filtered through a 0.2-μm filter (Nalgene, ThermoFisher Scientific, Rockville, MD, USA), collected by centrifugation at 2,000 rpm for 10 min (Eppendorf, Hamburg, Germany), freeze-dried for 16 hrs (Labconco, Kansas City, MO, USA), and stored at −20° C. The microspheres fabricated with this technique were between 2 and 200 microns.
Gel preparation and folic acid release study. Folic acid (100 μg/ml) (Sigma-Aldrich, St Louis, MO) was encapsulated in PLG microspheres as described above. The resulting lyophilized powder was formulated into an oral gel containing 20 mg of folic acid microspheres mixed with 5% of methylcellulose (Sigma-Aldrich, St Louis, MO) in 330 μl of phosphate buffer saline. The gels were prepared fresh daily before applications and repeated until end of the study period (14 days).

[2] = system: LITAF; experiment: Mice study #2: LITAF immunoblotting of gingival samples; assay type: in vivo, C57BL/6 mice; conditions: pattern as for Myd88 (disease higher than control and treatment)
Protocol: Western blot analysis. Cells were seeded in 60 mm plates with a density of 5×10^5 cells per plate and washed briefly with Dulbecco's phosphate-buffered saline (Gibco, Waltham, MA, USA). Whole cell lysates were prepared using RIPA lysis buffer containing protease inhibitor cocktail (Sigma-Aldrich). Total protein concentration was determined using the BCA reagent (Pierce, Waltham, MA, USA). 20 μg of total protein were resolved on sodium dodecyl sulfate-polyacrylamide gel electrophoresis and transferred to polyvinylidenedifluoride membrane and immunoblotted. The blots were incubated for 1 h in 1% bovine serum albumin (BSA) (Sigma-Aldrich) to block the non-specific bindings followed by over-night incubation in primary antibodies (MyD88 and pP65 from Cell Signaling Technology, and human LITAF ThermoFisher Sigma) at 4° C. on shaker. Next day, blots were washed for three times (10 min each) in Tris-buffered saline containing 1% Tween20 (TBST) followed by incubation with secondary antibody (Goat anti-rabbit IgG HRP) with 1:10,000 dilution for 1 h. […] The band intensities were quantified using software ImageJ (NIH, USA) and relative protein levels were normalized by β-actin (Cell Signaling). […] The band intensities were measured by the software ImageJ (NIH, USA), and relative protein levels were normalized by β-actin.

Nc1nc2ncc(CNc3ccc(C(=O)N[C@@H](CCC(=O)O)C(=O)O)cc3)nc2c(=O)[nH]1 [folic acid]
release of folic acid from polymeric microspheres ([1]; FIG. 20): sustained release
release of folic acid noted to continue until ([1]; controlled release system with PLGA and methylcellulose gel): 21 days
amount of the released Folic acid ([1]; controlled release system with PLGA and methylcellulose gel, day 1): ~400 µg/mL
amount of the released Folic acid ([1]; controlled release system with PLGA and methylcellulose gel, day 21): 800 µg/mL
LITAF expression, pattern across groups [2]: a similar pattern

— patent US20260000496A1, “MATERIALS AND METHODS FOR DRUG-INDUCED GINGIVAL OVERGROWTH” (Optimed Technology, Inc., priority 2019, published 2026)
